For two compounds, IC50 and half-life results are on record in patent US20180125988A1, “TARGETED XTEN CONJUGATE COMPOSITIONS AND METHODS OF MAKING SAME” (AMUNIX OPERATING INC., priority 2014, published 2018).

In series [1] the test system is folate receptor-positive KB cell line. Briefly: CellTiter-Glo anti-proliferation assay, 3xFA(γ),3xMMAE-XTEN on KB cells with or without folic acid competitor. It is filed as cell-based. The conditions noted are these: Homo sapiens, no folic acid competitor. Here is the method: The ability to selectively target and kill cells bearing folate receptors was evaluated. Test articles of free MMAE, a non-targeting 3xMMAE-XTEN conjugate (XTEN linked to toxin) and the folate receptor-targeted 3xFA(γ),3xMMAE-XTEN conjugate were evaluated in a CellTiter-Glo anti-proliferation assay using the folate receptor-positive KB cell line. As culture media contain high folic acid content, KB cells were grown in folic acid-free media containing 10% heat-inactivated fetal calf serum at 37° C., 5% CO2 for at least 7 days prior to the commencement of the cell viability experiment, This medium was also utilized for the execution of the experiment. In brief, KB cells were plated at 10,000 cells per well onto a 96-well microtiter assay plate. KB cells were allowed to adhere to the plate by an overnight incubation at 37° C., 5% CO2. The spent media was then removed and wells designated to contain folic acid competitor received assay medium containing folic acid, while wells not designated to have folic acid competitor received assay medium only. The plate was incubated for 30 min at 37° C., 5% CO2 before the assay media was aspirated and plate washed with assay media. […] After the appropriate incubation period, CellTiter-Glo reagent was added and the plate was read on a luminometer. The IC50 of each test article was determined using a 4 parameter logistic curve fit using GraphPad Prism.

The conditions of series [2]: in Man; cited from earlier work.

Where a SMILES comes first, the peptide text is derived from it. [ ]: non-standard residue; d: D form. The star is where a group is joined. Dolaproine = CO[C@@H]([C@@H]1CCCN1)[C@@H](C)C(=O)O; Dil = CC[C@H](C)[C@H](NC)[C@@H](CC(=O)O)OC; X1 = C[C@@H](N*)[C@@H](O)c1ccccc1; NMeV = CN[C@H](C(=O)O)C(C)C

Consider `CC[C@H](C)[C@@H]([C@@H](CC(=O)N1CCC[C@H]1[C@H](OC)[C@@H](C)C(=O)N[C@H](C)[C@@H](O)c1ccccc1)OC)N(C)C(=O)[C@@H](NC(=O)[C@@H](NC)C(C)C)C(C)C` [MMAE, monomethyl auristatin E] (H-[NMeV]V[Dil][Dolaproine]-X1), for which the IC50 in series [1] worked out at 0.8 nM.
As to “pyroGlu-His-Trp-Ser-Tyr-Gly-Leu-Arg-Pro-Gly-NH2 [LHRH]”, in series [2], the half-life result is “less than 4 minutes”.
